Reference: PubChem BioAssay AID248 (DTP/NCI, 2004)
Where “and” joins values, the source holds several entries; their conditions need not be identical. Identical values can stand only once. Inconclusive results and toxic doses are left out.

Test system: L1210 leukemia ip in BDF1 mice, survival T/C
Assay: NCI In Vivo Anticancer Drug Screen. Data for tumor model L1210 Leukemia (intraperitoneal) in B6D2F1 (BDF1) mice
Settings: endpoint: mean survival time, higher = longer survival
Outline: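 Read-out is survival time, reported as the treated-group measurement over the vehicle-control measurement.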

[1] = dose: 6.25 mg/kg/injection, schedule: Q01DX009 (ip), vehicle: saline with Tween-80
[2] = dose: 12.5 mg/kg/injection, schedule: Q01DX009 (ip), vehicle: saline with Tween-80
[3] = dose: 100.0 mg/kg/injection, schedule: Q01DX009 (ip), vehicle: Klucel (hydroxypropylcellulose) (HPC)
[4] = dose: 100.0 mg/kg/injection, schedule: Q04DX003 (ip), vehicle: Klucel (hydroxypropylcellulose) (HPC)
[5] = dose: 200.0 mg/kg/injection, schedule: Q01DX009 (ip), vehicle: Klucel (hydroxypropylcellulose) (HPC)
[6] = dose: 200.0 mg/kg/injection, schedule: Q04DX003 (ip), vehicle: Klucel (hydroxypropylcellulose) (HPC)
[7] = dose: 400.0 mg/kg/injection, schedule: Q04DX003 (ip), vehicle: Klucel (hydroxypropylcellulose) (HPC)
[8] = dose: 75.0 mg/kg/injection, schedule: Q01DX001 (ip), vehicle: saline
[9] = dose: 50.0 mg/kg/injection, schedule: Q01DX009 (ip), vehicle: saline with Tween-80
[10] = dose: 100.0 mg/kg/injection, schedule: Q04DX003 (ip), vehicle: saline with Tween-80
[11] = dose: 200.0 mg/kg/injection, schedule: Q04DX003 (ip), vehicle: saline with Tween-80
[12] = dose: 400.0 mg/kg/injection, schedule: Q04DX003 (ip), vehicle: saline with Tween-80

## Cc1c2cnccc2c(C)c2c1c1ccccc1n2CCNCCO
[1]
  T/C: 97 % of control
[2]
  T/C: 122 % of control
dose: 25.0 mg/kg/injection, schedule: Q01DX009 (ip), vehicle: saline with Tween-80
  T/C: 113 % of control
dose: 100.0 mg/kg/injection, schedule: Q04DX003 (ip), vehicle: saline sonified
  T/C: 111 % of control
dose: 200.0 mg/kg/injection, schedule: Q04DX003 (ip), vehicle: saline sonified
  T/C: 103 % of control

## N#CC(/C=C/c1ccco1)Nc1ccccc1C(N)=O (stereo unspecified)
[3]
  T/C: 121 % of control
[4]
  T/C: 93 % of control
[5]
  T/C: 121 % of control
[6]
  T/C: 94 % of control
[7]
  T/C: 100 % of control

## Cn1cnc2c3cccnc3ccc21
[8]
  T/C: 95 % of control
dose: 150.0 mg/kg/injection, schedule: Q01DX001 (ip), vehicle: saline
  T/C: 103 % of control

## c1ccc(CC23CCCCC2N3)cc1 (stereo unspecified)
[9]
  T/C: 95 % of control

## CCN(CC)CCOc1ccc(C(=O)/C(=C/c2ccc3c(c2)OCO3)c2ccccc2)cc1
dose: 100.0 mg/kg/injection, schedule: Q04DX003 (sc), vehicle: olive oil, sesame oil, peanut oil
  T/C: 103 % of control
dose: 200.0 mg/kg/injection, schedule: Q04DX003 (sc), vehicle: olive oil, sesame oil, peanut oil
  T/C: 97 % of control
dose: 400.0 mg/kg/injection, schedule: Q04DX003 (sc), vehicle: olive oil, sesame oil, peanut oil
  T/C: 100 % of control

## O=C1C=CC(=O)N1c1ccc2c(c1)oc(=O)c1ccccc12
dose: 37.5 mg/kg/injection, schedule: Q01DX009 (ip), vehicle: saline with Tween-80
  T/C: 92 % of control
dose: 50.0 mg/kg/injection, schedule: Q04DX003 (ip), vehicle: saline
  T/C: 96 % of control
dose: 100.0 mg/kg/injection, schedule: Q01DX001 (ip), vehicle: saline
  T/C: 97 % of control
dose: 100.0 mg/kg/injection, schedule: Q04DX003 (ip), vehicle: saline
  T/C: 96 % of control
dose: 200.0 mg/kg/injection, schedule: Q01DX001 (ip), vehicle: saline
  T/C: 92 % of control
dose: 200.0 mg/kg/injection, schedule: Q04DX003 (ip), vehicle: saline
  T/C: 97 % of control

## CC1=NN(c2ccc([N+](=O)[O-])cc2)C(=O)C1[N+](=O)[O-] (stereo unspecified) (tested in a mixture with another compound)
dose: 75.0 mg/kg/injection, schedule: Q01DX001 (ip), vehicle: carboxymethylcellulose (CMC)
  T/C: 101 % of control
dose: 150.0 mg/kg/injection, schedule: Q01DX001 (ip), vehicle: carboxymethylcellulose (CMC)
  T/C: 95 % of control
dose: 300.0 mg/kg/injection, schedule: Q01DX001 (ip), vehicle: carboxymethylcellulose (CMC)
  T/C: 110 % of control

## CC1CCCCN1C(=O)Nc1cccc(C(F)(F)F)c1 (stereo unspecified)
dose: 100.0 mg/kg/injection, schedule: Q01DX001 (ip), vehicle: gum acacia
  T/C: 100 % of control and 103 % of control
dose: 100.0 mg/kg/injection, schedule: Q01DX009 (ip), vehicle: gum acacia
  T/C: 107 % of control
dose: 100.0 mg/kg/injection, schedule: Q04DX002 (ip), vehicle: gum acacia
  T/C: 93 % of control
dose: 100.0 mg/kg/injection, schedule: Q04DX003 (ip), vehicle: gum acacia
  T/C: 100 % of control and 101 % of control
dose: 200.0 mg/kg/injection, schedule: Q01DX001 (ip), vehicle: gum acacia
  T/C: 95 % of control and 105 % of control
dose: 200.0 mg/kg/injection, schedule: Q01DX009 (ip), vehicle: gum acacia
  T/C: 106 % of control
dose: 200.0 mg/kg/injection, schedule: Q04DX002 (ip), vehicle: gum acacia
  T/C: 96 % of control and 98 % of control
dose: 200.0 mg/kg/injection, schedule: Q04DX003 (ip), vehicle: gum acacia
  T/C: 95 % of control
dose: 400.0 mg/kg/injection, schedule: Q01DX001 (ip), vehicle: gum acacia
  T/C: 92 % of control and 102 % of control
dose: 400.0 mg/kg/injection, schedule: Q01DX009 (ip), vehicle: gum acacia
  T/C: 102 % of control
dose: 400.0 mg/kg/injection, schedule: Q04DX002 (ip), vehicle: gum acacia
  T/C: 93 % of control and 86 % of control
dose: 400.0 mg/kg/injection, schedule: Q04DX003 (ip), vehicle: gum acacia
  T/C: 98 % of control and 100 % of control

## Cc1c2ccncc2c(C)c2c1[nH]c1ccc(O)cc12
dose: 3.1 mg/kg/injection, schedule: Q01DX009 (ip), vehicle: saline with Tween-80
  T/C: 158 % of control
[1]
  T/C: 100 % of control
dose: 6.3 mg/kg/injection, schedule: Q04DX003 (ip), vehicle: saline with Tween-80
  T/C: 122 % of control
dose: 12.5 mg/kg/injection, schedule: Q01DX001 (oral), vehicle: saline with Tween-80
  T/C: 104 % of control
[2]
  T/C: 98 % of control
dose: 25.0 mg/kg/injection, schedule: Q01DX001 (oral), vehicle: saline with Tween-80
  T/C: 106 % of control
dose: 50.0 mg/kg/injection, schedule: Q01DX001 (oral), vehicle: saline with Tween-80
  T/C: 104 % of control
dose: 50.0 mg/kg/injection, schedule: Q04DX003 (ip), vehicle: saline with Tween-80
  T/C: 98 % of control
dose: 100.0 mg/kg/injection, schedule: Q01DX001 (oral), vehicle: saline with Tween-80
  T/C: 114 % of control
dose: 200.0 mg/kg/injection, schedule: Q01DX001 (oral), vehicle: saline with Tween-80
  T/C: 112 % of control

## CS(=O)(=O)OCCN(CCOS(C)(=O)=O)c1ccc(C=O)cc1
dose: 3.8 mg/kg/injection, schedule: Q01DX009 (ip), vehicle: saline
  T/C: 122 % of control
dose: 6.0 mg/kg/injection, schedule: Q01DX001 (ip), vehicle: saline
  T/C: 112 % of control
dose: 7.5 mg/kg/injection, schedule: Q01DX009 (ip), vehicle: saline
  T/C: 113 % of control
dose: 12.0 mg/kg/injection, schedule: Q01DX001 (ip), vehicle: saline
  T/C: 118 % of control
dose: 15.0 mg/kg/injection, schedule: Q01DX009 (ip), vehicle: saline
  T/C: 122 % of control
dose: 25.0 mg/kg/injection, schedule: Q01DX001 (ip), vehicle: saline
  T/C: 120 % of control
dose: 30.0 mg/kg/injection, schedule: Q01DX009 (ip), vehicle: saline
  T/C: 116 % of control
dose: 60.0 mg/kg/injection, schedule: Q01DX009 (ip), vehicle: saline
  T/C: 116 % of control and 118 % of control
[8]
  T/C: 104 % of control
dose: 99.0 mg/kg/injection, schedule: Q01DX009 (ip), vehicle: saline
  T/C: 110 % of control

## Nc1nnnc2c1ncn2C1CCCC1
dose: 75.0 mg/kg/injection, schedule: Q01DX001 (ip), vehicle: other
  T/C: 97 % of control

## COC(OC)c1cc(=O)[nH]cn1
[3]
  T/C: 94 % of control
[5]
  T/C: 106 % of control
dose: 400.0 mg/kg/injection, schedule: Q01DX009 (ip), vehicle: Klucel (hydroxypropylcellulose) (HPC)
  T/C: 107 % of control

## O=C(O)CCSSc1ccc([N+](=O)[O-])cc1[N+](=O)[O-]
dose: 12.5 mg/kg/injection, schedule: Q01DX009 (ip), vehicle: Klucel (hydroxypropylcellulose) (HPC)
  T/C: 96 % of control
dose: 12.5 mg/kg/injection, schedule: Q04DX003 (ip), vehicle: Klucel (hydroxypropylcellulose) (HPC)
  T/C: 98 % of control
dose: 25.0 mg/kg/injection, schedule: Q01DX009 (ip), vehicle: Klucel (hydroxypropylcellulose) (HPC)
  T/C: 99 % of control
dose: 25.0 mg/kg/injection, schedule: Q04DX003 (ip), vehicle: Klucel (hydroxypropylcellulose) (HPC)
  T/C: 107 % of control
dose: 50.0 mg/kg/injection, schedule: Q04DX003 (ip), vehicle: Klucel (hydroxypropylcellulose) (HPC)
  T/C: 105 % of control

## O=C(Nc1ccc(Cl)c(Cl)c1)Nc1ccccc1O
[4]
  T/C: 100 % of control
[6]
  T/C: 102 % of control
[7]
  T/C: 100 % of control

## Nc1ccc(C(=O)Oc2ccc([N+](=O)[O-])cc2)cc1
[10]
  T/C: 98 % of control
[11]
  T/C: 88 % of control
[12]
  T/C: 86 % of control

## COc1ccc([N+](=O)[O-])cn1
[10]
  T/C: 98 % of control
[11]
  T/C: 91 % of control
[12]
  T/C: 88 % of control

## O=C(OCCc1ccccc1)c1ccccc1
dose: 100.0 mg/kg/injection, schedule: Q04DX002 (ip), vehicle: saline with Tween-80
  T/C: 100 % of control
dose: 200.0 mg/kg/injection, schedule: Q04DX002 (ip), vehicle: saline with Tween-80
  T/C: 100 % of control
dose: 400.0 mg/kg/injection, schedule: Q04DX002 (ip), vehicle: saline with Tween-80
  T/C: 103 % of control

## CN(C(=O)C1CCCCC1)C1CCCCC1O (stereo unspecified)
[9]
  T/C: 101 % of control
dose: 100.0 mg/kg/injection, schedule: Q01DX009 (ip), vehicle: saline with Tween-80
  T/C: 93 % of control
dose: 200.0 mg/kg/injection, schedule: Q01DX009 (ip), vehicle: saline with Tween-80
  T/C: 90 % of control
